# Laboratory results: the supplement of paper PMC10307832
# Compound: CN(C)C(=N)NC(=N)N [Metformin] + CC1(C)CCC(c2ccc(Cl)cc2)=C(CN2CCN(c3ccc(C(=O)NS(=O)(=O)c4ccc(N[C@H](CCN5CCOCC5)CSc5ccccc5)c(S(=O)(=O)C(F)(F)F)c4)cc3)CC2)C1 [Navitoclax] (partner 0.5 µM)
# Experiment: relative viability (nuclei count vs DMSO), 5 days (fraction); higher = more cells survive
# Details: first compound 10 µM
# Outline: (§1)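 Lung cancer cell lines in 1536-well plates were dosed by pin tool the day after seeding, either with one drug alone or with a fixed anchor-drug dose plus five library-drug doses (not always all listed) in √10 steps. After 5 days, cells were fixed and their nuclei stained in one step (final 0.05% Triton X-100, 1% formaldehyde, 1 ug/ml Hoechst), then counted on 4× images. Relative viability is the nuclei count in treated wells divided by that in vehicle wells. Values are medians of duplicate plates.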
row,Cell Line,relative viability
1,NCI-H1666,1.17
2,NCI-H1734,0.882
3,NCI-H1755,0.821
4,NCI-H1793,0.335
5,NCI-H1944,0.968
6,NCI-H1975,1.23
7,NCI-H1993,1.04
8,NCI-H2009,1.19
9,NCI-H2085,1.08
10,NCI-H2087,0.951
11,NCI-H2126,0.788
12,NCI-H2170,0.579
13,NCI-H2228,1.02
14,NCI-H2347,0.633
15,NCI-H2405,0.869
16,NCI-H3122,0.937
17,PC-3 [JPC-3],0.702
18,PC-14,0.968
19,RERF-LC-KJ,1.08
20,SK-LU-1,0.891
21,SK-MES-1,0.879
22,SW 1573,0.878
23,UMC-11,0.328

# Same assay, conditions: first compound 31.62 µM
row,Cell Line,relative viability
1,NCI-H1666,1.05
2,NCI-H1734,0.863
3,NCI-H1755,0.897
4,NCI-H1793,0.395
5,NCI-H1915,0.794
6,NCI-H1944,1.04
7,NCI-H1975,1.32
8,NCI-H1993,1.04
9,NCI-H2009,1.16
10,NCI-H2023,0.973
11,NCI-H2085,1.12
12,NCI-H2087,0.86
13,NCI-H2126,0.834
14,NCI-H2170,0.526
15,NCI-H2228,1.04
16,NCI-H2347,0.694
17,NCI-H2405,1.26
18,NCI-H3122,0.955
19,PC-3 [JPC-3],0.735
20,PC-14,0.958
21,RERF-LC-KJ,1.15
22,SK-LU-1,0.777
23,SK-MES-1,1.08
24,SW 1573,0.835
25,UMC-11,0.347

# Same assay, conditions: first compound 100 µM
row,Cell Line,relative viability
1,NCI-H1666,0.956
2,NCI-H1734,0.908
3,NCI-H1755,0.912
4,NCI-H1793,0.482
5,NCI-H1915,0.702
6,NCI-H1944,1.04
7,NCI-H1975,1.28
8,NCI-H1993,1.28
9,NCI-H2009,1.21
10,NCI-H2023,0.876
11,NCI-H2085,1.05
12,NCI-H2087,0.96
13,NCI-H2126,0.842
14,NCI-H2170,0.575
15,NCI-H2347,0.802
16,NCI-H2405,0.988
17,NCI-H3122,0.969
18,PC-3 [JPC-3],0.821
19,PC-14,0.998
20,RERF-LC-KJ,0.752
21,SK-LU-1,0.976
22,SK-MES-1,1.07
23,SW 1573,1.11
24,UMC-11,0.346

# Same assay, conditions: first compound 316.23 µM
row,Cell Line,relative viability
1,NCI-H1666,0.899
2,NCI-H1734,0.822
3,NCI-H1755,0.89
4,NCI-H1793,0.442
5,NCI-H1915,0.749
6,NCI-H1944,0.966
7,NCI-H1975,1
8,NCI-H1993,0.968
9,NCI-H2009,1.17
10,NCI-H2085,1.07
11,NCI-H2087,0.782
12,NCI-H2126,0.771
13,NCI-H2170,0.497
14,NCI-H2228,0.815
15,NCI-H2347,0.746
16,NCI-H2405,1.07
17,NCI-H3122,0.933
18,PC-3 [JPC-3],0.761
19,PC-14,1
20,RERF-LC-KJ,0.833
21,SK-LU-1,0.926
22,SK-MES-1,0.973
23,SW 1573,0.994
24,UMC-11,0.363

# Same assay, conditions: first compound 1000 µM
row,Cell Line,relative viability
1,NCI-H1666,1.07
2,NCI-H1734,0.905
3,NCI-H1755,0.935
4,NCI-H1793,0.489
5,NCI-H1915,0.806
6,NCI-H1944,1.07
7,NCI-H1975,1.23
8,NCI-H1993,1.25
9,NCI-H2009,1.07
10,NCI-H2023,0.567
11,NCI-H2085,1.11
12,NCI-H2087,0.834
13,NCI-H2126,0.787
14,NCI-H2170,0.507
15,NCI-H2228,1.05
16,NCI-H2347,0.716
17,NCI-H2405,1.09
18,NCI-H3122,0.89
19,PC-3 [JPC-3],0.732
20,PC-14,0.989
21,RERF-LC-KJ,0.745
22,SK-LU-1,0.953
23,SK-MES-1,1.14
24,SW 1573,1.1
25,UMC-11,0.384

# Compound: N#CC1(c2ccc(NC(=O)c3cccnc3NCc3ccncc3)cc2)CCCC1 [Apatinib] + CC1(C)CCC(c2ccc(Cl)cc2)=C(CN2CCN(c3ccc(C(=O)NS(=O)(=O)c4ccc(N[C@H](CCN5CCOCC5)CSc5ccccc5)c(S(=O)(=O)C(F)(F)F)c4)cc3)CC2)C1 [Navitoclax] (partner 0.5 µM)
# Experiment: as above
# Details: first compound 0.08 µM
# Outline: as §1
row,Cell Line,relative viability
1,NCI-H1666,1.02
2,NCI-H1734,0.852
3,NCI-H1755,1
4,NCI-H1793,0.343
5,NCI-H1915,0.838
6,NCI-H1944,1.04
7,NCI-H1975,1.19
8,NCI-H1993,1.13
9,NCI-H2009,1.22
10,NCI-H2023,0.988
11,NCI-H2085,1.18
12,NCI-H2087,1.06
13,NCI-H2126,0.9
14,NCI-H2170,0.617
15,NCI-H2228,1.02
16,NCI-H2347,0.783
17,NCI-H2405,1.03
18,NCI-H3122,1.07
19,PC-3 [JPC-3],0.785
20,PC-14,1.04
21,RERF-LC-KJ,0.931
22,SK-LU-1,0.965
23,SK-MES-1,1.25
24,SW 1573,1.01
25,UMC-11,0.343

# Same assay, conditions: first compound 0.253 µM
row,Cell Line,relative viability
1,NCI-H1666,0.963
2,NCI-H1734,0.81
3,NCI-H1755,0.968
4,NCI-H1793,0.712
5,NCI-H1915,0.819
6,NCI-H1944,1.06
7,NCI-H1975,1.15
8,NCI-H1993,0.822
9,NCI-H2009,1.23
10,NCI-H2023,1.01
11,NCI-H2085,1.23
12,NCI-H2087,1.05
13,NCI-H2126,0.859
14,NCI-H2170,0.646
15,NCI-H2228,0.988
16,NCI-H2347,0.698
17,NCI-H2405,1.07
18,NCI-H3122,0.965
19,PC-3 [JPC-3],0.764
20,PC-14,0.968
21,RERF-LC-KJ,1.04
22,SK-LU-1,1.35
23,SK-MES-1,1.17
24,SW 1573,1
25,UMC-11,0.335

# Same assay, conditions: first compound 0.8 µM
row,Cell Line,relative viability
1,NCI-H1666,1.07
2,NCI-H1734,0.861
3,NCI-H1755,0.963
4,NCI-H1793,0.441
5,NCI-H1915,0.778
6,NCI-H1944,0.976
7,NCI-H1975,1.04
8,NCI-H1993,0.813
9,NCI-H2009,1.12
10,NCI-H2023,0.954
11,NCI-H2085,1.18
12,NCI-H2087,0.847
13,NCI-H2126,0.826
14,NCI-H2170,0.568
15,NCI-H2228,0.738
16,NCI-H2347,0.948
17,NCI-H2405,1.01
18,NCI-H3122,1.01
19,PC-3 [JPC-3],0.746
20,PC-14,0.967
21,RERF-LC-KJ,0.874
22,SK-LU-1,0.705
23,SK-MES-1,1.24
24,SW 1573,1.19
25,UMC-11,0.319

# Same assay, conditions: first compound 2.53 µM
row,Cell Line,relative viability
1,NCI-H1666,0.815
2,NCI-H1734,0.708
3,NCI-H1755,0.952
4,NCI-H1793,0.29
5,NCI-H1915,0.783
6,NCI-H1944,0.974
7,NCI-H1975,0.869
8,NCI-H1993,0.688
9,NCI-H2009,0.913
10,NCI-H2023,0.925
11,NCI-H2085,1.05
12,NCI-H2087,0.963
13,NCI-H2126,0.811
14,NCI-H2170,0.599
15,NCI-H2228,0.708
16,NCI-H2347,0.728
17,NCI-H2405,0.832
18,NCI-H3122,1.08
19,PC-3 [JPC-3],0.816
20,PC-14,0.986
21,RERF-LC-KJ,0.557
22,SK-LU-1,0.638
23,SK-MES-1,1.14
24,SW 1573,0.927
25,UMC-11,0.247

# Same assay, conditions: first compound 8 µM
row,Cell Line,relative viability
1,NCI-H1666,1.04
2,NCI-H1734,0.685
3,NCI-H1755,0.865
4,NCI-H1793,0.283
5,NCI-H1915,0.732
6,NCI-H1944,0.965
7,NCI-H1975,0.852
8,NCI-H1993,0.772
9,NCI-H2009,0.826
10,NCI-H2023,0.895
11,NCI-H2085,0.949
12,NCI-H2087,0.782
13,NCI-H2126,0.802
14,NCI-H2170,0.498
15,NCI-H2228,0.751
16,NCI-H2347,0.74
17,NCI-H2405,0.803
18,NCI-H3122,1.04
19,PC-3 [JPC-3],0.737
20,PC-14,0.937
21,RERF-LC-KJ,0.997
22,SK-LU-1,0.631
23,SK-MES-1,0.965
24,SW 1573,0.885
25,UMC-11,0.266

# Compound: N#CC1(c2ccc(NC(=O)c3cccnc3NCc3ccncc3)cc2)CCCC1 [Apatinib] + COc1cc2c(Oc3ccc(NC(=O)C4(C(=O)Nc5ccc(F)cc5)CC4)cc3F)ccnc2cc1OCCCN1CCOCC1 [Foretinib] (partner 0.25 µM)
# Experiment: as above
# Details: first compound 0.08 µM
# Outline: as §1
row,Cell Line,relative viability
1,NCI-H1666,0.953
